Activity calls are given as the source filed them. The calls are words filed in the database; no cut-off is given here.
Columns and labels:
[1] = tested on: B16-F10-luc2; assay: Photo-activated cytotoxicity against mouse B16-F10-luc2 cells assessed as cell viability at 1 uM preincubated for 3 hrs followed by compound washout and subsequent 22.8 J cm'-2 light irradiation for 60 secs measured after 21 hrs by MTT assay relative to control; assay type: functional; details: B16-F10-luc2, light or radiation study, read-out: Activity
[2] = Induction of ROS generation in ethanol assessed as reduction in DPBF absorbance at 410 nm at 1 uM preincubated for 10 mins followed by 342 J cm'-2 light irradiation for 15 mins and measured at 5 mins interval for 15 mins by spectrometric method; assay type: functional
[3] = tested on: B16-F10-luc2; assay: Antitumor activity against mouse B16-F10-luc2 cells implanted in SCID mouse assessed as tumor volume at 100 uM, iv administered 30 mins prior to 68.4 J cm'-2 light irradiation for 3 mins on day 1, 2, 7, and 9 measured for 12 days relative to control; assay type: functional
[4] = tested on: B16-F10-luc2; assay: Antitumor activity against mouse B16-F10-luc2 cells implanted in SCID mouse assessed as reduction in tumor growth at 100 uM, iv administered 30 mins prior to 68.4 J cm'-2 light irradiation for 3 mins on day 1, 2, 7, and 9 measured on day 13; assay type: functional, organism-based
[5] = tested on: MCF7; assay: Cytotoxicity against human MCF7 cells assessed as reduction in cell viability up to 1 uM incubated for 24 hrs under dark condition by MTT assay; assay type: cell-based; details: mcf7, 24 h
[6] = tested on: PANC-1; assay: Cytotoxicity against human PANC1 cells assessed as reduction in cell viability up to 1 uM incubated for 24 hrs under dark condition by MTT assay; assay type: cell-based; details: panc-1, 24 h
[7] = Induction of singlet oxygen generation in ethanol at 1 uM preincubated for 10 mins followed by 342 J cm'-2 light irradiation for 15 mins and measured at 5 mins interval for 15 mins by spectrometric method; assay type: functional
[8] = Cytotoxicity against mouse B16-F10-luc2 cells assessed as cell viability at 1 uM incubated for 24 hrs under dark condition by MTT assay relative to control; assay type: cell-based; details: read-out: Activity
[9] = tested on: B16-F10-luc2; assay: Photo-activated cytotoxicity against mouse B16-F10-luc2 cells assessed as reduction in cell viability preincubated for 3 hrs followed by compound washout and subsequent 22.8 J cm'-2 light irradiation for 60 secs measured after 21 hrs by MTT assay; assay type: functional, cell-based; details: B16-F10-luc2, light or radiation study
[10] = tested on: B16-F10-luc2; assay: (§1) Induction of apoptosis in mouse B16-F10-luc2 cells assessed as decrease in viable cells at 1 uM preincubated for 3 hrs followed by compound washout and subsequent 22.8 J cm'-2 light irradiation for 60 secs measured after 21 hrs by Alexa Fluor 488 Annexin V/Dead Cell staining based flow cytometry; assay type: functional
[11] = tested on: B16-F10-luc2; assay: as §1, with “increase” for “decrease”, “late apoptotic” for “viable”; assay type: functional
[12] = tested on: B16-F10-luc2; assay: Induction of apoptosis in mouse B16-F10-luc2 cells assessed as increase in necrotic cells at 1 uM preincubated for 3 hrs followed by compound washout and subsequent 22.8 J cm'-2 light irradiation for 60 secs measured after 21 hrs by Alexa Fluor 488 Annexin V/Dead Cell staining based flow cytometry; assay type: functional
[13] = tested on: B16-F10-luc2; assay: Induction of apoptosis in mouse B16-F10-luc2 cells assessed as decrease in viable cells at 1 uM measured after 24 hrs by Alexa Fluor 488 Annexin V/Dead Cell staining based flow cytometry; assay type: functional
[14] = tested on: B16-F10-luc2; assay: Induction of apoptosis in mouse B16-F10-luc2 cells assessed as increase in late apoptotic cells at 1 uM measured after 24 hrs by Alexa Fluor 488 Annexin V/Dead Cell staining based flow cytometry; assay type: functional
[15] = tested on: B16-F10-luc2; assay: Induction of apoptosis in mouse B16-F10-luc2 cells assessed as increase in necrotic cells at 1 uM measured after 24 hrs by Alexa Fluor 488 Annexin V/Dead Cell staining based flow cytometry; assay type: functional
[16] = tested on: B16-F10-luc2; assay: Induction of reactive oxygen species generation in mouse B16-F10-luc2 cells at 10 uM preincubated for 3 hrs followed by compound washout prior to […] addition for 1 hr and subsequent 22.8 J cm'-2 light irradiation for 60 secs post media washout and measured immediately by fluorescence assay; assay type: functional, cell-based
[17] = tested on: B16-F10-luc2; assay: Antitumor activity against mouse B16-F10-luc2 cells implanted in SCID mouse assessed as tumor growth at 100 uM, iv administered on day 1, 2, 7, and 9 measured for 12 days relative to control; assay type: functional
[18] = tested on: B16-F10-luc2; assay: Antitumor activity against mouse B16-F10-luc2 cells implanted in SCID mouse assessed as tumor growth at 100 uM, iv administered 30 mins prior to 68.4 J cm'-2 light irradiation for 3 mins on day 1, 2, 7, and 9 measured for 12 days relative to control; assay type: functional
[19] = Toxicity in mouse B16-F10-luc2 cells implanted SCID mouse assessed as effect on body weight at 100 uM, iv administered 30 mins prior to 68.4 J cm'-2 light irradiation for 3 mins on day 1, 2, 7, and 9; assay type: organism-based; details: in vivo, 0.05 h
[20] = Acute toxicity in mouse B16-F10-luc2 cells implanted SCID mouse at 100 uM, iv administered 30 mins prior to 68.4 J cm'-2 light irradiation for 3 mins on day 1, 2, 7, and 9; assay type: organism-based; details: in vivo, 0.05 h
[21] = tested on: MCF7; assay: Photo-activated cytotoxicity against human MCF7 cells assessed as reduction in cell viability up to 1 uM preincubated for 3 hrs followed by compound washout and subsequent 22.8 J cm'-2 light irradiation for 60 secs measured after 21 hrs by MTT assay; assay type: functional, cell-based
[22] = tested on: PANC-1; assay: Photo-activated cytotoxicity against human PANC1 cells assessed as reduction in cell viability up to 1 uM preincubated for 3 hrs followed by compound washout and subsequent 22.8 J cm'-2 light irradiation for 60 secs measured after 21 hrs by MTT assay; assay type: functional, cell-based
[23] = tested on: HeLa; assay: Photo-activated cytotoxicity against human HeLa cells assessed as reduction in cell viability preincubated for 3 hrs followed by compound washout and subsequent 22.8 J cm'-2 light irradiation for 60 secs measured after 21 hrs by MTT assay; assay type: functional, cell-based; details: light or radiation study
[24] = Drug uptake in mouse B16-F10-luc2 cells assessed as increase in fluorescence intensity at 10 uM measured after 3 hrs by confocal laser scanning microscopic analysis relative to RB; assay type: ADME, cell-based; details: b16-f10-luc2, 3 h
[25] = tested on: HeLa; assay: Photo-activated cytotoxicity against human HeLa cells assessed as reduction in cell viability preincubated for 4 hrs followed by compound washout and subsequent 3.3 mW cm'-2 light irradiation for 24 mins measured after 48 hrs by MTT assay; assay type: functional, cell-based; details: light or radiation study

For O=C([O-])c1c(Cl)c(Cl)c(Cl)c(Cl)c1-c1c2cc(I)c(=O)c(I)c-2oc2c(I)c([O-])c(I)cc12.[Na+].[Na+] [ROSE BENGAL SODIUM], the viability at 1 µM [1] was 69%, the Activity [2] was “Active” and the Activity [3] was 502%. The Activity [4] was “Active”, the Activity [5] was “Active” and the Activity [6] was “Active”.

For O=C(O)CCCCCCCOC(=O)c1c(Cl)c(Cl)c(Cl)c(Cl)c1-c1c2cc(I)c(=O)c(I)c-2oc2c(I)c(O)c(I)cc12, the viability at 1 µM [1] was 62%, the Activity [2] was “Active” and the Activity [7] was “Active”.

C=Cc1c(C)c2cc3[nH]c(cc4nc(cc5nc(cc1[nH]2)C(C)=C5CCC(=O)N[C@@H](CS)C(=O)N[C@@H](CCCCN)C(=O)N[C@@H](CC(C)C)C(=O)N[C@@H](C)C(=O)N[C@@H](CCCCN)C(=O)N[C@@H](CC(C)C)C(=O)N[C@@H](C)C(=O)N[C@@H](CCCCN)C(=O)N[C@@H](CCCCN)C(=O)N[C@@H](CC(C)C)C(=O)N[C@@H](C)C(=O)N[C@@H](CCCCN)C(=O)N[C@@H](CC(C)C)C(=O)N[C@@H](C)C(=O)N[C@@H](CCCCN)C(N)=O)C(CCC(=O)O)=C4C)c(C)c3C=C showed a viability at 1 µM [1] of 38% and a viability at 24 h, 1 µM [8] of 46%.

CC(C)C[C@H](NC(=O)[C@H](CCCCN)NC(=O)[C@H](C)NC(=O)[C@H](CC(C)C)NC(=O)[C@H](CCCCN)NC(=O)[C@H](CCCCN)NC(=O)[C@H](C)NC(=O)[C@H](CC(C)C)NC(=O)[C@H](CCCCN)NC(=O)[C@H](C)NC(=O)[C@H](CC(C)C)NC(=O)[C@H](CCCCN)NC(=O)[C@H](CS)NC(=O)CCCCCCCOC(=O)c1c(Cl)c(Cl)c(Cl)c(Cl)c1-c1c2cc(I)c(=O)c(I)c-2oc2c(I)c(O)c(I)cc12)C(=O)N[C@@H](C)C(=O)N[C@@H](CCCCN)C(N)=O gave a viability at 1 µM [1] of 6%, a viability at 24 h, 1 µM [8] of 69% and an IC50 [9] of 310 nM. The Activity [10] was “Active”, the Activity [11] was “Active” and the Activity [12] was “Active”. The Activity [13] was “Active”, the Activity [14] was “Active” and the Activity [15] was “Active”. The Activity [2] was “Active”, the Activity [7] was “Active” and the Activity [16] was “Active”. The Activity [17] was 573%, the Activity [18] was 23% and the Activity [4] was “Active”. For the same compound, the Activity [19] was “Non-Toxic”, the Activity [20] was “Non-Toxic” and the Activity [21] was “Active”. For the same compound, the Activity [22] was “Active”, the Activity [5] was “Active” and the Activity [6] was “Active”. The IC50 [23] was 290 nM and the Drug uptake [24] was 69%.

C=Cc1c(C)c2cc3[nH]c(cc4nc(cc5nc(cc1[nH]2)C(C)=C5CCC(=O)O)C(CCC(=O)O)=C4C)c(C)c3C=C showed an IC50 [25] of 1610 nM.
